Tests used:
Rattus norvegicus [1] = organism: Rattus norvegicus; assay: Potency relative to [2-(2,4-Dichloro-phenoxy)-phenyl]-acetic acid in rat adjuvant arthritis test; format: functional
Rattus norvegicus [2] = assay: Reduction in paw swelling at 100 mg/kg po dose in rat using adjuvant arthritis test.; format: functional

SMILES | Relative potency (Rattus norvegicus [1]) | Reduction (Rattus norvegicus [2])
Cc1ccc(Oc2cc(C)c(Cl)c(C)c2)c(CC(=O)O)c1 | 0.7 | 5
COc1ccccc1Oc1ccccc1CC(=O)O | 0.7 | 38
Cc1ccc(Oc2cc(O)c(C)cc2CC(=O)O)c(Cl)c1 |  | 12
Cc1ccc(Oc2ccc(C)cc2CC(=O)O)c(C)c1 |  | 20
CCc1cc(Cl)ccc1Oc1ccc(C)cc1CC(=O)O | 0.4 | 17
Cc1ccc(Oc2ccc(Cl)cc2C)c(CC(=O)O)c1 |  | 17
O=C(O)Cc1cc([N+](=O)[O-])c([N+](=O)[O-])cc1Oc1ccc(Cl)cc1Cl |  | 8%
O=C(O)Cc1ccccc1Oc1cc(Cl)c(Cl)cc1Cl |  | 17
Cc1ccc(Oc2c(C)cccc2Cl)c(CC(=O)O)c1 | 0.5 | 26
O=C(O)Cc1cc(Cl)ccc1Oc1ccccc1F |  | 21
Cc1cc(Oc2ccc(Cl)cc2CC(=O)O)c(Cl)cc1Cl | 0.6 | 40
COc1cc(Cl)ccc1Oc1ccc(C)cc1CC(=O)O | 0.7 | 23
O=C(O)Cc1ccccc1Oc1ccc(Br)cc1Br | 0.8 | 29
Cc1ccc(Oc2cc(Cl)ccc2C)c(CC(=O)O)c1 | 0.2 | 15
CCCc1ccc(Oc2ccc(C)cc2CC(=O)O)c(Cl)c1 | 0.6 | 27
CCc1ccc(Oc2ccc(C)cc2CC(=O)O)c(CC)c1 |  | 8
O=C(O)Cc1cc(Cl)ccc1Oc1ccc(O)cc1Cl |  | 36
CCOC(=O)Cc1ccccc1Oc1ccc(Cl)cc1Cl | 0.5 | 34
Cc1ccc(Oc2cc(C)cc(C)c2C)c(CC(=O)O)c1 | 0.1 | 11
O=C(O)Cc1cc(Cl)ccc1Oc1ccccc1 |  | 0
Cc1cc(Oc2ccccc2CC(=O)O)c(Cl)c(C)c1Cl | 1.2 | 34

SMILES | Relative potency (Rattus norvegicus [1]) | Reduction (Rattus norvegicus [2])
Cc1cc(Oc2ccccc2CC(=O)O)c(Cl)cc1Cl |  | 19
Cc1ccc(Oc2ccc(C)cc2CC(=O)O)c(Cl)c1 | 0.4 | 35
O=C(O)Cc1ccccc1Oc1ccc([N+](=O)[O-])cc1Cl |  | 19%
O=C(O)CCc1ccccc1Oc1ccc(Cl)cc1Cl |  | 0
Cc1ccc(Oc2cc(C)c(Cl)cc2Cl)c(CC(=O)O)c1 | 0.4 | 45
Cc1ccc(Oc2ccc(CC(C)C)cc2Cl)c(CC(=O)O)c1 | 0.2 | 19
NC(=O)Cc1ccccc1Oc1ccc(Cl)cc1Cl | 1.3 | 33
CCCCCCCCCCc1ccc(Oc2ccc(C)cc2CC(=O)O)c(Cl)c1 |  | 9%
Cc1ccc(Oc2cccc(Cl)c2C)c(CC(=O)O)c1 | 0.3 | 20
Cc1ccc(Oc2cc(Cl)ccc2Cl)c(CC(=O)O)c1 | 0.4 | 32
O=C(O)Cc1ccccc1Oc1ccc(Cl)cc1 |  | 0
O=C(O)Cc1ccccc1Oc1ccc([N+](=O)[O-])cc1[N+](=O)[O-] |  | 0%
Cc1ccc(Oc2cc(C)c(Cl)c(C)c2Cl)c(CC(=O)O)c1 |  | 20
Cc1ccc(Oc2ccc(C(C)C)cc2Cl)c(CC(=O)O)c1 | 1.6 | 30
O=C(O)Cc1ccccc1Oc1cccc(Cl)c1Cl |  | 51
O=C(O)Cc1ccccc1Oc1ccccc1 |  | 0
Cc1ccc(Oc2ccccc2F)c(CC(=O)O)c1 |  | 24
Cc1ccc(Oc2cc(C(F)(F)F)ccc2Cl)c(CC(=O)O)c1 | 3 | 29
CCCCCCCCCc1ccc(Oc2ccc(C)cc2CC(=O)O)c(Cl)c1 |  | 8%
Cc1ccc(Oc2ccc(N)cc2CC(=O)O)c(Cl)c1 |  | 3
Cc1ccc(Oc2ccc(Cl)cc2CC(=O)O)c(C)c1 |  | 22

SMILES | Relative potency (Rattus norvegicus [1]) | Reduction (Rattus norvegicus [2])
COc1ccc(Oc2ccc(Cl)cc2Cl)c(CC(=O)O)c1 |  | 3
Cc1ccc(Oc2ccc(Cl)c(Cl)c2)c(CC(=O)O)c1 |  | 9
Cc1ccc(Oc2ccc(Cl)cc2O)c(CC(=O)O)c1 |  | 26
O=C(O)Cc1ccccc1Oc1ccc(Cl)cc1[N+](=O)[O-] |  | 4%
Cc1ccc(Oc2ccccc2Cl)c(CC(=O)O)c1 |  | 12
COc1ccc(Oc2ccc(Cl)cc2CC(=O)O)c(Cl)c1 |  | 18
Cc1ccc(Oc2cc(C)c(Cl)cc2C)c(CC(=O)O)c1 |  | 10
O=C(O)Cc1ccccc1Oc1c(Cl)cccc1Cl |  | 20
Cc1ccc(Oc2ccccc2CC(=O)O)c(C)c1 |  | 20
O=C(O)Cc1cc(Cl)ccc1Oc1ccc(Cl)cc1 |  | 21
O=C(O)Cc1cc(Cl)ccc1Oc1cccc(Cl)c1 |  | 0
Cc1cc(Cl)ccc1Oc1ccc(Cl)cc1CC(=O)O |  | 7
CCCCOc1ccc(CC(=O)O)c(Oc2ccc(C)cc2Cl)c1 |  | 0
Cc1ccc(Oc2ccc(O)cc2CC(=O)O)c(Cl)c1 |  | 10
Cc1ccc(Oc2ccc(Cl)c(C)c2)c(CC(=O)O)c1 |  | 9
CCCCCCCCCCCc1ccc(Oc2ccc(C)cc2CC(=O)O)c(Cl)c1 |  | 14%
Cc1ccc(Oc2ccc(Cl)cc2CC(=O)O)c(Cl)c1 |  | 10
CC(C(=O)O)c1ccccc1Oc1ccc(Cl)cc1Cl (stereo not drawn) |  | 0
Nc1ccc(Oc2ccc(Cl)cc2Cl)c(CC(=O)O)c1 |  | 0
Cc1ccc(Oc2c(Cl)cccc2Cl)c(CC(=O)O)c1 |  | 16
O=C(O)Cc1ccccc1Oc1c(Cl)cc(Cl)cc1Cl |  | 23

SMILES | Relative potency (Rattus norvegicus [1]) | Reduction (Rattus norvegicus [2])
CN(C)c1ccc(Oc2ccc(Cl)cc2Cl)c(CC(=O)O)c1 |  | 5
Cc1ccc(Oc2ccc(C(F)(F)F)cc2CC(=O)O)c(Cl)c1 |  | 0
O=C(O)Cc1cc(Cl)ccc1Oc1ccccc1Cl |  | 0
Nc1ccc(Oc2ccccc2CC(=O)O)c(N)c1 |  | 0%
CCCCCCc1ccc(Oc2ccc(C)cc2CC(=O)O)c(Cl)c1 |  | 5
O=C(O)Cc1cc([N+](=O)[O-])ccc1Oc1ccc(Cl)cc1Cl |  | 9%
Cc1ccc(Oc2cccc(Cl)c2Cl)c(CC(=O)O)c1 |  | 13
O=C(O)c1ccccc1Oc1ccc(Cl)cc1Cl |  | 18
Cc1ccc(Oc2ccccc2C(F)(F)F)c(CC(=O)O)c1 |  | 0
Cc1ccc(Oc2cc(C)c(Cl)cc2C(C)C)c(CC(=O)O)c1 |  | 3
Cc1ccc(Oc2ccccc2CC(=O)O)c(Cl)c1 |  | 21
Cc1cc(Cl)c(Oc2ccc(Cl)cc2CC(=O)O)cc1C |  | 22
CCCCCCCCc1ccc(Oc2ccc(C)cc2CC(=O)O)c(Cl)c1 |  | 13%
CCCCc1ccc(Cl)c(Oc2ccc(C)cc2CC(=O)O)c1 |  | 5
O=C(O)Cc1ccccc1Oc1ccccc1C(F)(F)F |  | 0
O=C(O)Cc1ccc(Oc2ccc(Cl)cc2Cl)cc1 |  | 2
Cc1cc(Oc2ccc(Cl)cc2CC(=O)O)cc(C)c1Cl |  | 23
Cc1cc(Cl)ccc1Oc1ccccc1CC(=O)O |  | 0
O=C(O)Cc1ccccc1Oc1cc(Cl)ccc1Cl |  | 18
O=C(O)Cc1ccccc1Oc1ccc(Cl)c(Cl)c1 |  | 20
